The source of these data is patent US7365225B2, “Aryl dicarboxamides” (Laboratoires Serono SA, priority 2003, dated 2008).

For orientation: IC50 means the midpoint of a concentration-inhibition curve.

Each structure is given as a SMILES string.

Format in all cases: biochemical
One assay has as its target T1, SHP-2 (Homo sapiens, UniProt Q06124).
T1 construct: using the catalytic core of a human recombinant PTP as the enzyme; made in house
T1 sequence (Q06124 247-517 limits assumed): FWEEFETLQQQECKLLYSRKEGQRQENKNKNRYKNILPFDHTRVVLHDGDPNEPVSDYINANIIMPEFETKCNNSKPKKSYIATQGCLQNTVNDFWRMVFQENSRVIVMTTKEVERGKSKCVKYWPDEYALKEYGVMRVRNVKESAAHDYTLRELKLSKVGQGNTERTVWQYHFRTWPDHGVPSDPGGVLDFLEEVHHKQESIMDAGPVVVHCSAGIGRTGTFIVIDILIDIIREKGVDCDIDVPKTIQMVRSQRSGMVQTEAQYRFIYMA
Put plainly: PTP Enzyme Assay (DiFMUP), SHP-2. Particulars: catalytic core of human recombinant PTP; 20 μM DiFMUP; 30 minutes at room temperature; read-out: IC50 value in respect of SHP-2. How it is done: (§1) The PTP Enzyme Assay aims at determining the extent of inhibition of PTPs, e.g. of PTP1B, SHP-1, SHP-2, or GLEPP-1 in the presence of a test compound of formula (I). The inhibition is illustrated by IC50 values which denote the concentration of test compound necessary to achieve an inhibition of 50% of said PTP's using the following concentration of the PTP substrate DiFMUP: • 5 μM DiFMUP for PTP1B; • 20 μM DiFMUP for SHP-1 and SHP-2; • 30 μM DiFMUP for GLEPP-1. a) PTPs Cloning […]
(§2) Assays were performed in a 96 well plate format, using the catalytic core of a human recombinant PTP as the enzyme and 6,8-DiFluoro-4-MethylUmbelliferyl Phosphate (DiFMUP, Molecular Probes, D-6567) as a substrate. […] The reaction ran for 30 minutes at room temperature before reading the fluorescence intensity (integral or intensity) on a Perkin-Elmer Victor 2 spectrofluorimeter (excitation of 6,8-difluoro-7-hydroxy coumarin is at 355 nm, the emission at 460 nm, for 0.1 s). The percentage of inhibition is determined by measuring the relative fluorescence ion absence of a test compound (PTP inhibitor), i.e. with the solvent alone (5% DMSO). The IC50 values for inhibition were determined in triplicates.

A further assay has as its target T2, PTP1B (Homo sapiens, UniProt P18031).
T2 construct: using the catalytic core of a human recombinant PTP as the enzyme; made in house
T2 sequence (P18031 3-277 limits assumed): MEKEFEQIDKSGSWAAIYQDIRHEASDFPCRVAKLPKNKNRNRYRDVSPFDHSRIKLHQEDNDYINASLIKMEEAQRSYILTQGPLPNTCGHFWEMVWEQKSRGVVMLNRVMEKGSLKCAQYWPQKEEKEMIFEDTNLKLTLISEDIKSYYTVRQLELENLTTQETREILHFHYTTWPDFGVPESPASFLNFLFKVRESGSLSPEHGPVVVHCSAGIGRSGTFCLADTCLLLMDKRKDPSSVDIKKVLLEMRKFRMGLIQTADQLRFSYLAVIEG
Kind of assay: PTP Enzyme Assay (DiFMUP), PTP1B. Particulars: catalytic core of human recombinant PTP; 5 μM DiFMUP; 30 minutes at room temperature; read-out: IC50 value in respect of PTP1B. As to the method:
The PTP Enzyme Assay aims at determining the extent of inhibition of PTPs, e.g. of PTP1B, SHP-1, SHP-2, or GLEPP-1 in the presence of a test compound of formula (I). The inhibition is illustrated by IC50 values which denote the concentration of test compound necessary to achieve an inhibition of 50% of said PTP's using the following concentration of the PTP substrate DiFMUP: • 5 μM DiFMUP for PTP1B; • 20 μM DiFMUP for SHP-1 and SHP-2; • 30 μM DiFMUP for GLEPP-1. a) PTPs Cloning
The cloning and expression of the catalytic domain e.g. of PTP1B, may be performed as described in J. Biol. Chem. 2000, 275(13), pp 9792-9796. […]
as §2

In the next assay the target is T3, SHP-1 (Homo sapiens, UniProt P29350).
T3 construct: using the catalytic core of a human recombinant PTP as the enzyme; made in house
T3 sequence (P29350 244-515 limits assumed): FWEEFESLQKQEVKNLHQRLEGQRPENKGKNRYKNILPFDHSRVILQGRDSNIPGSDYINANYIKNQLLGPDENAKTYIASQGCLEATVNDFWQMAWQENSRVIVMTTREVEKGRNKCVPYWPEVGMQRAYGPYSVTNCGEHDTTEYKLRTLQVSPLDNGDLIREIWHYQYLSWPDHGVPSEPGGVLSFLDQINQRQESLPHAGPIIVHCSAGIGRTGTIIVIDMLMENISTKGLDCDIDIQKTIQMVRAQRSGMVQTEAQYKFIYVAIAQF
Kind of assay: PTP Enzyme Assay (DiFMUP), SHP-1. Particulars: catalytic core of human recombinant PTP; 20 μM DiFMUP; 30 minutes at room temperature; read-out: IC50 value in respect of SHP-1. How it is done: as §1, §2

For the next assay, the target named is T4, GLEPP-1 (Homo sapiens, UniProt Q16827).
T4 construct: using the catalytic core of a human recombinant PTP as the enzyme; made in house
T4 sequence (Q16827 938-1195 limits assumed): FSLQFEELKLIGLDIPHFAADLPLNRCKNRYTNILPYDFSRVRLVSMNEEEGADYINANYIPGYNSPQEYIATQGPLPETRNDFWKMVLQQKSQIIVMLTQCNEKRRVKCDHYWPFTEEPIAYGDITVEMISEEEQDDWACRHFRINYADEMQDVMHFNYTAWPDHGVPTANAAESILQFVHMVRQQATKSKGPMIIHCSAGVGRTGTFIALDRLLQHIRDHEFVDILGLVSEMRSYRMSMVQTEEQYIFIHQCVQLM
Put plainly: PTP Enzyme Assay (DiFMUP), GLEPP-1. The following applies: catalytic core of human recombinant PTP; 30 μM DiFMUP; 30 minutes at room temperature; read-out: IC50 value in respect of GLEPP-1. As to the method: as §1, §2

Take `O=C(NCc1ccc(Oc2ccccc2)cc1)c1ccc(CN(C(=O)CCC2CCCC2)c2ccc(O)c(C(=O)O)c2)cc1` [Example 1, 5-[(3-cyclopentylpropanoyl)(4-{[(4-phenoxybenzyl)amino]carbonyl}benzyl)amino]-2-hydroxybenzoic acid]: the IC50 came to 1.9 µM on SHP-2, 1 µM at PTP1B, 4 µM on SHP-1 and 1.2 µM at GLEPP-1.
